ChEMBL document CHEMBL1154169, “Activity and molecular modeling of a new small molecule active against NNRTI-resistant HIV-1 mutants” (Eur J Med Chem, 2009)

Key:
[1] = Cytotoxicity against human MT4 cells assessed as reduction of cell viability after 4 days by MTT assay; assay type: cell-based
[2] = system: Human immunodeficiency virus 1; experiment: Antiviral activity against NNRTI-resistant HIV1 N119 with reverse transcriptase Y181C mutant infected in human MT4 cells assessed as protection against virus-induced cytopathogenicity after 4 days by MTT assay; assay type: functional, organism-based; conditions: Human immunodeficiency virus 1, N119, MT4, 96 h
[3] = system: Human immunodeficiency virus 1; experiment: Antiviral activity against NNRTI-resistant HIV1 A17 with reverse transcriptase K103N, Y181C mutant infected in human MT4 cells assessed as protection against virus-induced cytopathogenicity after 4 days by MTT assay; assay type: functional, organism-based; conditions: Human immunodeficiency virus 1, A17, MT4, 96 h
[4] = system: Human immunodeficiency virus 1; experiment: Antiviral activity against HIV1 EFV with reverse transcriptase K103R, V179D, P225H mutant infected in human MT4 cells assessed as protection against virus-induced cytopathogenicity after 4 days by MTT assay; assay type: functional, organism-based; conditions: Human immunodeficiency virus 1, EFV, MT4, 96 h
[5] = system: Bovine viral diarrhea virus 1; experiment: Antiviral activity against Bovine viral diarrhea virus infected in MDBK cells assessed as protection against virus-induced cytopathogenicity after 2 to 3 days by MTT assay; assay type: functional, organism-based; conditions: Bovine viral diarrhea virus isolates and strains
Yellow fever virus = experiment: Antiviral activity against Yellow fever virus infected in BHK-21 cells assessed as protection against virus-induced cytopathogenicity after 2 to 3 days by MTT assay; assay type: functional, organism-based
Coxsackievirus B2 = experiment: Antiviral activity against Coxsackievirus B2 infected in african green monkey Vero cells assessed as reduction of virus plaque formation after 3 days; assay type: functional, organism-based; conditions: Enterovirus B, 72 h
Poliovirus 1 = experiment: Antiviral activity against Poliovirus Sb-1 infected in african green monkey Vero cells assessed as reduction of virus plaque formation after 3 days; assay type: functional, cell-based; conditions: Enterovirus C, Sabin, 72 h
[6] = system: Human immunodeficiency virus 1; experiment: Antiviral activity against HIV1 3B infected in human MT4 cells assessed as protection against virus-induced cytopathogenicity after 4 days by MTT assay; assay type: functional, organism-based; conditions: Human immunodeficiency virus 1, 3B, MT4, 96 h
[7] = system: Respiratory syncytial virus; experiment: Antiviral activity against Respiratory syncytial virus assessed as reduction of virus plaque formation by cell based assay; assay type: functional, organism-based; conditions: human respiratory syncytial virus
[8] = system: Vesicular stomatitis virus; experiment: Antiviral activity against Vesicular stomatitis virus assessed as reduction of virus plaque formation by cell based assay; assay type: functional, organism-based
[9] = system: Mammalian orthoreovirus 1; experiment: Antiviral activity against Reovirus 1 assessed as protection against virus-induced cytopathogenicity by cell based MTT assay; assay type: functional, organism-based
Vaccinia virus = experiment: Antiviral activity against Vaccinia virus assessed as reduction of virus plaque formation by cell based assay; assay type: functional, organism-based; conditions: Orthopoxvirus vaccinia
[10] = system: Human immunodeficiency virus; experiment: Inhibition of HIV reverse transcriptase RNA-dependent polymerase activity after 30 mins by fluorescent microplate assay

SMILES	CC50 at 96 h [1]	EC50 [2]	EC50 [3]	EC50 [4]	EC50 [5]	EC50 (Yellow fever virus)	EC50 (Coxsackievirus B2)	EC50 (Poliovirus 1)	EC50 [6]	EC50 [7]	EC50 [8]	EC50 [9]	EC50 (Vaccinia virus)	Activity [10]
Cc1ccnc2c1NC(=O)c1cccnc1N2C1CC1 [NEVIRAPINE]	> 100 µM	7 µM	> 20 µM	> 20 µM										
[O-][n+]1n[nH]c2c(Cl)c3ncccc3cc21	> 100 µM	> 100 µM	> 100 µM	> 100 µM	> 100 µM	> 100 µM	> 100 µM	> 100 µM	> 100 µM	> 100 µM	> 100 µM	> 100 µM	> 100 µM	
c1cnc2cc3[nH]nnc3cc2c1	> 100 µM	> 100 µM	> 100 µM	> 100 µM	> 100 µM	> 100 µM	> 100 µM	> 100 µM	> 100 µM	> 100 µM	> 100 µM	> 100 µM	> 100 µM	
[O-][n+]1n[nH]c2c1Cc1cccnc1C2	> 100 µM	4 µM	10 µM	9 µM	> 100 µM	> 100 µM	> 100 µM	> 100 µM	12 µM	> 100 µM	> 100 µM	> 100 µM	> 100 µM	Dose-dependent effect
O=C1Nc2ccc(Cl)cc2[C@@](C#CC2CC2)(C(F)(F)F)O1 [EFAVIRENZ]	45 µM		0.06 µM	7 µM										
c1c2c(cc3[nH]nnc13)NCCC2	> 100 µM	> 100 µM	> 100 µM	> 100 µM	> 100 µM	> 100 µM	> 100 µM	> 100 µM	> 100 µM	> 100 µM	> 100 µM	> 100 µM	> 100 µM	
CCOn1nnc2c1Cc1cccnc1C2	> 100 µM	> 100 µM	> 100 µM	> 100 µM	> 100 µM	> 100 µM	> 100 µM	> 100 µM	> 100 µM	> 100 µM	> 100 µM	> 100 µM	> 100 µM	
c1cnc2c(c1)Cc1nn[nH]c1C2	> 100 µM	> 100 µM	> 100 µM	> 100 µM	> 100 µM	> 100 µM	> 100 µM	> 100 µM	> 100 µM	> 100 µM	> 100 µM	> 100 µM	> 100 µM	
